Data as given in US20250051356A1, “RIFABUTIN ANALOGS FOR THE TREATMENT OF DISEASE” (priority 2021, published 2025).
Converted amounts (≈) assume the structure as drawn. Like-named read-outs stand apart in the source and are kept apart here.

How the values were obtained:
Assay type in all cases: cell-based
[1] = tested on: A. baumannii (HUMC1 strain); test: MIC by broth microdilution against A. baumannii in RPMI + 10% FCS; conditions: Acinetobacter baumannii, read-out: MIC A. baumannii
[2] = tested on: M. abscessus subsp. abscessus ATCC 19977; test: MIC against M. abscessus in Middlebrook 7H9 + ADC; conditions: Mycobacteroides abscessus
[3] = tested on: S. aureus (UAMS-1625 strain); test: MIC by broth microdilution against S. aureus; conditions: Staphylococcus aureus, read-out: MIC S. aureus
[4] = ATCC19977, ATCC 19977, 7H9 + ADC, read-out: MIC M. abscessus

Compound | MIC ([1]; HUMC1 strain, RPMI + 10% FCS) | MIC [2, 4] | MIC [3] | MIC [1] | MIC ([2]; ATCC19977, read-out: MIC M. abscessus)
CO[C@H]1/C=C/O[C@@]2(C)Oc3c(C)c(O)c4c(c3C2=O)C2=NC3(CCN(CC(C)C)CC3)NC2=C(NC(=O)/C(C)=C\C=C\[C@H](C)[C@H](O)[C@@H](C)[C@@H](O)[C@@H](C)[C@H](OC(=O)CC(=O)NCC2CCN(C)CC2)[C@@H]1C)C4=O [Compound 5] | ≤ 0.002 µg/mL | 1 µg/mL | 0.125 µg/mL (≈ 0.125 µM) | – | –
CO[C@H]1/C=C/O[C@@]2(C)Oc3c(C)c(O)c4c(c3C2=O)C2=NC3(CCN(CC(C)C)CC3)NC2=C(NC(=O)/C(C)=C\C=C\[C@H](C)[C@H](O)[C@@H](C)[C@@H](O)[C@@H](C)[C@H](OC(=O)CC(=O)NC2CCN(C)CC2)[C@@H]1C)C4=O [Compound 6] | ≤ 0.002 µg/mL | 1 µg/mL | 0.03 µg/mL (≈ 0.0304 µM) | – | –
CO[C@H]1/C=C/O[C@@]2(C)Oc3c(C)c(O)c4c(c3C2=O)C2=NC3(CCN(CC(C)C)CC3)NC2=C(NC(=O)/C(C)=C\C=C\[C@H](C)[C@H](O)[C@@H](C)[C@@H](O)[C@@H](C)[C@H](OC(=O)CC(=O)N2CCC(N(C)C)CC2)[C@@H]1C)C4=O [Compound 7] | ≤ 0.002 µg/mL | 1 µg/mL | 0.016 µg/mL (≈ 0.016 µM) | – | –
CO[C@H]1/C=C/O[C@@]2(C)Oc3c(C)c(O)c4c(c3C2=O)C2=NC3(CCN(CC(C)C)CC3)NC2=C(NC(=O)/C(C)=C\C=C\[C@H](C)[C@H](O)[C@@H](C)[C@@H](O)[C@@H](C)[C@H](OC(=O)CC(=O)N2CCCCC2)[C@@H]1C)C4=O [Compound 8] | 0.004 µg/mL | 0.5 µg/mL | 0.016 µg/mL (≈ 0.0167 µM) | – | –
CO[C@H]1/C=C/O[C@@]2(C)Oc3c(C)c(O)c4c(c3C2=O)C2=NC3(CCN(CC(C)C)CC3)NC2=C(NC(=O)/C(C)=C\C=C\[C@H](C)[C@H](O)[C@@H](C)[C@@H](O)[C@@H](C)[C@H](OC(=O)CC(=O)N2CCN(C)CC2)[C@@H]1C)C4=O [Compound 10] | ≤ 0.002 µg/mL | 1 µg/mL | 0.016 µg/mL (≈ 0.0164 µM) | – | –
CO[C@H]1/C=C/O[C@@]2(C)Oc3c(C)c(O)c4c(c3C2=O)C2=NC3(CCN(CC(C)C)CC3)NC2=C(NC(=O)/C(C)=C\C=C\[C@H](C)[C@H](O)[C@@H](C)[C@@H](O)[C@@H](C)[C@H](OC(=O)CC(=O)N2CCN(c3ccccc3S(N)(=O)=O)CC2)[C@@H]1C)C4=O [Compound 12] | 0.03 µg/mL | 0.5 µg/mL | 0.125 µg/mL (≈ 0.112 µM) | – | –
CO[C@H]1/C=C/O[C@@]2(C)Oc3c(C)c(O)c4c(c3C2=O)C2=NC3(CCN(CC(C)C)CC3)NC2=C(NC(=O)/C(C)=C\C=C\[C@H](C)[C@H](O)[C@@H](C)[C@@H](O)[C@@H](C)[C@H](OC(=O)CC(=O)N2CCC(N3CCN(C)C(=O)C3)CC2)[C@@H]1C)C4=O [Compound 15] | 0.004 µg/mL | 1 µg/mL | 0.016 µg/mL (≈ 0.0149 µM) | – | –
CCOC(=O)CCNC(=O)CC(=O)O[C@H]1[C@H](C)[C@H](O)[C@H](C)[C@@H](O)[C@@H](C)/C=C/C=C(/C)C(=O)NC2=C3NC4(CCN(CC(C)C)CC4)N=C3c3c(c(O)c(C)c4c3C(=O)[C@@](C)(O/C=C/[C@H](OC)[C@H]1C)O4)C2=O [Compound 16] | 0.004 µg/mL | 2 µg/mL | 0.03 µg/mL (≈ 0.0303 µM) | – | –
COC(=O)CNC(=O)CC(=O)O[C@H]1[C@H](C)[C@H](O)[C@H](C)[C@@H](O)[C@@H](C)/C=C/C=C(/C)C(=O)NC2=C3NC4(CCN(CC(C)C)CC4)N=C3c3c(c(O)c(C)c4c3C(=O)[C@@](C)(O/C=C/[C@H](OC)[C@H]1C)O4)C2=O [Compound 17] | ≤ 0.002 µg/mL | 2 µg/mL | 0.03 µg/mL (≈ 0.0312 µM) | – | –
CO[C@H]1/C=C/O[C@@]2(C)Oc3c(C)c(O)c4c(c3C2=O)C2=NC3(CCN(CC(C)C)CC3)NC2=C(NC(=O)/C(C)=C\C=C\[C@H](C)[C@H](O)[C@@H](C)[C@@H](O)[C@@H](C)[C@H](OC(=O)CC(=O)Nc2ccc(CN3CCCCC3)cc2)[C@@H]1C)C4=O [Compound 18] | ≤ 0.002 µg/mL | 1 µg/mL | 0.06 µg/mL (≈ 0.0564 µM) | – | –
CO[C@H]1/C=C/O[C@@]2(C)Oc3c(C)c(O)c4c(c3C2=O)C2=NC3(CCN(CC(C)C)CC3)NC2=C(NC(=O)/C(C)=C\C=C\[C@H](C)[C@H](O)[C@@H](C)[C@@H](O)[C@@H](C)[C@H](OC(=O)CC(=O)NCCN2CCN(C)CC2)[C@@H]1C)C4=O [Compound 20] | ≤ 0.002 µg/mL | 1 µg/mL | 0.03 µg/mL (≈ 0.0295 µM) | – | –
CO[C@H]1/C=C/O[C@@]2(C)Oc3c(C)c(O)c4c(c3C2=O)C2=NC3(CCN(CC(C)C)CC3)NC2=C(NC(=O)/C(C)=C\C=C\[C@H](C)[C@H](O)[C@@H](C)[C@@H](O)[C@@H](C)[C@H](OC(=O)CC(=O)NCCN2CCOCC2)[C@@H]1C)C4=O [Compound 23] | ≤ 0.002 µg/mL | 1 µg/mL | 0.03 µg/mL (≈ 0.0299 µM) | – | –
CO[C@H]1/C=C/O[C@@]2(C)Oc3c(C)c(O)c4c(c3C2=O)C2=NC3(CCN(CC(C)C)CC3)NC2=C(NC(=O)/C(C)=C\C=C\[C@H](C)[C@H](O)[C@@H](C)[C@@H](O)[C@@H](C)[C@H](OC(=O)CC(=O)OCc2ccccc2)[C@@H]1C)C4=O [Compound 26] | 0.03 µg/mL | 4 µg/mL | 0.5 µg/mL (≈ 0.51 µM) | – | –
CO[C@H]1/C=C/O[C@@]2(C)Oc3c(C)c(O)c4c(c3C2=O)C2=NC3(CCN(CC(C)C)CC3)NC2=C(NC(=O)/C(C)=C\C=C\[C@H](C)[C@H](O)[C@@H](C)[C@@H](O)[C@@H](C)[C@H](OC(=O)CC(=O)OCC(C)C)[C@@H]1C)C4=O [Compound 27] | 0.016 µg/mL | 4 µg/mL | 0.125 µg/mL (≈ 0.132 µM) | – | –
CO[C@H]1/C=C/O[C@@]2(C)Oc3c(C)c(O)c4c(c3C2=O)C2=NC3(CCN(CC(C)C)CC3)NC2=C(NC(=O)/C(C)=C\C=C\[C@H](C)[C@H](O)[C@@H](C)[C@@H](O)[C@@H](C)[C@H](OC(=O)CC(=O)NCCCN(C)C)[C@@H]1C)C4=O [Compound 29] | ≤ 0.002 µg/mL | 1 µg/mL | 0.03 µg/mL (≈ 0.0308 µM) | – | –
CO[C@H]1/C=C/O[C@@]2(C)Oc3c(C)c(O)c4c(c3C2=O)C2=NC3(CCN(CC(C)C)CC3)NC2=C(NC(=O)/C(C)=C\C=C\[C@H](C)[C@H](O)[C@@H](C)[C@@H](O)[C@@H](C)[C@H](OC(=O)CC(=O)NCCN(C)C)[C@@H]1C)C4=O [Compound 30] | ≤ 0.002 µg/mL | 1 µg/mL | 0.03 µg/mL (≈ 0.0312 µM) | – | –
CO[C@H]1/C=C/O[C@@]2(C)Oc3c(C)c(O)c4c(c3C2=O)C2=NC3(CCN(CC(C)C)CC3)NC2=C(NC(=O)/C(C)=C\C=C\[C@H](C)[C@H](O)[C@@H](C)[C@@H](O)[C@@H](C)[C@H](OC(=O)CC(=O)OCCc2ccccc2)[C@@H]1C)C4=O [Compound 31] | 0.125 µg/mL | 4 µg/mL | 1 µg/mL (≈ 1 µM) | – | –
COCCCNC(=O)CC(=O)O[C@H]1[C@H](C)[C@H](O)[C@H](C)[C@@H](O)[C@@H](C)/C=C/C=C(/C)C(=O)NC2=C3NC4(CCN(CC(C)C)CC4)N=C3c3c(c(O)c(C)c4c3C(=O)[C@@](C)(O/C=C/[C@H](OC)[C@H]1C)O4)C2=O [Compound 34] | ≤ 0.002 µg/mL | 1 µg/mL | 0.016 µg/mL (≈ 0.0166 µM) | – | –
CO[C@H]1/C=C/O[C@@]2(C)Oc3c(C)c(O)c4c(c3C2=O)C2=NC3(CCN(CC(C)C)CC3)NC2=C(NC(=O)/C(C)=C\C=C\[C@H](C)[C@H](O)[C@@H](C)[C@@H](O)[C@@H](C)[C@H](OC(=O)CC(=O)Nc2ccc(CN3CCN(C)CC3)cc2)[C@@H]1C)C4=O [Compound 36] | ≤ 0.002 µg/mL | 1 µg/mL | 0.016 µg/mL (≈ 0.0148 µM) | – | –
CO[C@H]1/C=C/O[C@@]2(C)Oc3c(C)c(O)c4c(c3C2=O)C2=NC3(CCN(CC(C)C)CC3)NC2=C(NC(=O)/C(C)=C\C=C\[C@H](C)[C@H](O)[C@@H](C)[C@@H](O)[C@@H](C)[C@H](OC(=O)C(C)C(=O)N2CCCCC2)[C@@H]1C)C4=O (stereo partly drawn) [Compound 37] | ≤ 0.002 µg/mL | 0.5 µg/mL | 0.03 µg/mL (≈ 0.0309 µM) | – | –
CO[C@H]1/C=C/O[C@@]2(C)Oc3c(C)c(O)c4c(c3C2=O)C2=NC3(CCN(CC(C)C)CC3)NC2=C(NC(=O)/C(C)=C\C=C\[C@H](C)[C@H](O)[C@@H](C)[C@@H](O)[C@@H](C)[C@H](OC(=O)C(C)C(=O)N2CCN(c3ccccc3S(N)(=O)=O)CC2)[C@@H]1C)C4=O (stereo partly drawn) [Compound 38] | 0.008 µg/mL | 0.5 µg/mL | 0.25 µg/mL (≈ 0.222 µM) | – | –
CO[C@H]1/C=C/O[C@@]2(C)Oc3c(C)c(O)c4c(c3C2=O)C2=NC3(CCN(CC(C)C)CC3)NC2=C(NC(=O)/C(C)=C\C=C\[C@H](C)[C@H](O)[C@@H](C)[C@@H](O)[C@@H](C)[C@H](OC(=O)C(C)C(=O)N2CCC(Nc3ccccc3)CC2)[C@@H]1C)C4=O (stereo partly drawn) [Compound 41] | – | – | 0.5 µg/mL (≈ 0.47 µM) | 0.016 µg/mL | 0.5 µg/mL
CO[C@H]1/C=C/O[C@@]2(C)Oc3c(C)c(O)c4c(c3C2=O)C2=NC3(CCN(CC(C)C)CC3)NC2=C(NC(=O)/C(C)=C\C=C\[C@H](C)[C@H](O)[C@@H](C)[C@@H](O)[C@@H](C)[C@H](OC(=O)C(C)C(=O)N2CCC(n3c(=O)[nH]c5ccccc53)CC2)[C@@H]1C)C4=O (stereo partly drawn) [Compound 42] | 0.03 µg/mL | 0.5 µg/mL | 0.5 µg/mL (≈ 0.453 µM) | – | –
CO[C@H]1/C=C/O[C@@]2(C)Oc3c(C)c(O)c4c(c3C2=O)C2=NC3(CCN(CC(C)C)CC3)NC2=C(NC(=O)/C(C)=C\C=C\[C@H](C)[C@H](O)[C@@H](C)[C@@H](O)[C@@H](C)[C@H](OC(=O)C(C)C(=O)N2CCc3[nH]c5ccccc5c3C2)[C@@H]1C)C4=O (stereo partly drawn) [Compound 43] | 0.06 µg/mL | 0.5 µg/mL | 0.5 µg/mL (≈ 0.472 µM) | – | –
CO[C@H]1/C=C/O[C@@]2(C)Oc3c(C)c(O)c4c(c3C2=O)C2=NC3(CCN(CC(C)C)CC3)NC2=C(NC(=O)/C(C)=C\C=C\[C@H](C)[C@H](O)[C@@H](C)[C@@H](O)[C@@H](C)[C@H](OC(=O)CC(=O)OC2CCN(C)CC2)[C@@H]1C)C4=O [Compound 45] | 0.004 µg/mL | 0.5 µg/mL | 0.06 µg/mL (≈ 0.0607 µM) | – | –
CO[C@H]1/C=C/O[C@@]2(C)Oc3c(C)c(O)c4c(c3C2=O)C2=NC3(CCN(CC(C)C)CC3)NC2=C(NC(=O)/C(C)=C\C=C\[C@H](C)[C@H](O)[C@@H](C)[C@@H](O)[C@@H](C)[C@H](OC(=O)CC(=O)N2CCC(n3c(=O)[nH]c5ccccc53)CC2)[C@@H]1C)C4=O [Compound 46] | 0.03 µg/mL | 0.5 µg/mL | 0.25 µg/mL (≈ 0.229 µM) | – | –
